Results published in patent US20250120960A1, “Compositions and Methods for Treatment of Inflammatory Bowel Disease” (Nocion Therapeutics, Inc., priority 2022, published 2025).

What was measured:
[1] = Pharmacokinetic (PK) analysis of terminal plasma and colon samples in DSS mice; assay type: in vivo; conditions: 100 mg/kg QD PO
Experimental: (§1) Body weights, stool consistency and the presence of blood in the stool were measured over the 6 days and comprised the Disease Activity Index (DAI). On day 7 the study was terminated, and the colon and plasma were collected for cytokine measurements, histology evaluation and for pharmacokinetic (PK) analysis.

[2] = system: DSS mouse model of ulcerative colitis; assay: DSS mouse model of ulcerative colitis: Disease Activity Index, plasma and colon cytokines, colon histopathology; assay type: in vivo, mice; conditions: for amount of crypt damage (colon histopathology) / colon IL-15 level increased by DSS / colon KC level increased by DSS / colon RANTES level increased by DSS / degree of inflammatory infiltrate (colon histopathology) / layer to which the infiltration extended (extent of infiltration, colon histopathology): colon collected day 7; for improvement (reduction) in the Disease Activity Index (DAI): mice given 2.5% DSS in drinking water for 6 days, NTX 1170 100 mg/kg QD PO, infliximab 5 mg/kg QD IP, tofacitinib 5 mg/kg BID PO
Experimental: as §1

[3] = plasma collected day 7, 2.5% DSS 6 days

Row | Compound | Kp ([1]; mouse, colon and plasma, terminal samples, read-out: colon/plasma ratio) | level of compound in the colon ([1]; terminal colon sample) | level of compound in the plasma ([1]; terminal plasma sample) | amount of crypt damage (colon histopathology) ([2]; 2.5% DSS 6 days) | colon IL-15 level increased by DSS ([2]; 2.5% DSS 6 days) | colon KC level increased by DSS ([2]; 2.5% DSS 6 days) | colon RANTES level increased by DSS ([2]; 2.5% DSS 6 days) | degree of inflammatory infiltrate (colon histopathology) ([2]; 2.5% DSS 6 days) | layer to which the infiltration extended (extent of infiltration, colon histopathology) ([2]; 2.5% DSS 6 days) | improvement (reduction) in the Disease Activity Index (DAI) [2] [%] | plasma G-CSF level upregulated by DSS [2, 3] | plasma IP-10 level upregulated by DSS [2, 3] | plasma MIG level upregulated by DSS [2, 3] | plasma Mip-1β level upregulated by DSS [2, 3] | plasma TNF-α level upregulated by DSS [2, 3]
1 | Cc1cccc(C)c1NC(=O)C[N+]1(Cc2ccccc2)CCCCC1.[Br-] [NTX-1170] | > 3500 | high levels | very low levels | significantly reduced | significantly reduced | significantly reduced | significantly reduced | significantly reduced | significantly reduced | 60 | significantly reduced | significantly reduced | significantly reduced | significantly reduced | significantly reduced
2 | C[C@@H]1CCN(C(=O)CC#N)C[C@@H]1N(C)c1ncnc2[nH]ccc12 [tofacitinib] | – | – | – | – | neither tofacitinib nor infliximab significantly reduced | neither tofacitinib nor infliximab significantly reduced | neither tofacitinib nor infliximab significantly reduced | – | reduced | 38 | significantly reduced | – | significantly reduced | significantly reduced | significantly reduced
3 | infliximab | – | – | – | no significant effect | neither tofacitinib nor infliximab significantly reduced | neither tofacitinib nor infliximab significantly reduced | neither tofacitinib nor infliximab significantly reduced | no significant effect | no significant effect | – | reduced | – | – | reduced | reduced
